The subject of one assay is A549. In words: Cytotoxicity against human A549 cells after 48 hrs by MTT assay. Type of assay: functional, cell-based. A general note: Formazan colour is commonly taken as a measure of viable cells.
A further assay relates to Kidney. In words: Antioxidant activity in Sprague-Dawley rat kidney assessed as lipid peroxidation by thiobarbituric acid assay. Type of assay: functional, tissue-based.
Another assay deals with HL-60. In words: Cytotoxicity against human HL60 cells after 72 hrs by CCK8 method. Type of assay: functional, cell-based.
Another assay has as its system RPMI-8226. In words: Cytotoxicity against human RPMI8226 cells after 72 hrs by CCK8 method. Type of assay: functional, cell-based.
In another assay the test system is Liver. Nature of the assay: Antioxidant activity in Sprague-Dawley rat liver assessed as lipid peroxidation by thiobarbituric acid assay. Type of assay: functional, tissue-based.
[1] abbreviates: Rattus norvegicus, Sprague-Dawley, Kidney.
Setting [2] is: Rattus norvegicus, Sprague-Dawley, Liver.

As a reminder, the IC50 is the point on the concentration scale where inhibition reaches its midpoint. `COc1cc([C@@H]2c3cc4c(cc3C[C@H]3COC(=O)[C@@H]32)OCO4)cc(OC)c1O` [4'-DEMETHYLDEOXYPODOPHYLLOTOXIN]: the IC50 is 800 nM with A549 (Homo sapiens, A549, 48 h); 23000 nM with Kidney (setting [1]); 110 nM with HL-60 (Homo sapiens, HL-60, 72 h); 230 nM with RPMI-8226 (Homo sapiens, RPMI-8226, 72 h); 33800 nM with Liver (setting [2]).

Take `COc1cc([C@@H]2c3cc4c(cc3C[C@H]3COC(=O)[C@@H]32)OCO4)cc(OC)c1OC(=O)CNC(=O)OC1CC(C)(C)N([O])C(C)(C)C1`: the IC50 was 620 nM with A549 (a549); 13700 nM in the assay with Kidney; 8.7 nM with HL-60 (hl-60); 73 nM in the assay with RPMI-8226 (rpmi-8226); 14400 nM with Liver.

As for `COc1cc([C@@H]2c3cc4c(cc3C[C@H]3COC(=O)[C@@H]32)OCO4)cc(OC)c1OC(=O)[C@H](Cc1ccc(O)cc1)NC(=O)OC1CC(C)(C)N([O])C(C)(C)C1`, the IC50 is 270 nM with A549 (a549); 16300 nM with Kidney; 32 nM in the assay on HL-60 (hl-60); 43 nM with RPMI-8226 (rpmi-8226); 15200 nM in the assay with Liver.

With `COc1cc([C@@H]2c3cc4c(cc3C[C@H]3COC(=O)[C@@H]32)OCO4)cc(OC)c1OC(=O)[C@H](C)NC(=O)OC1CC(C)(C)N([O])C(C)(C)C1`, the IC50 stood at 670 nM in the assay with A549 (a549); 15800 nM with Kidney; 12 nM with HL-60 (hl-60); 44 nM in the assay on RPMI-8226 (rpmi-8226); 15300 nM in the assay on Liver.

On to `COc1cc([C@@H]2c3cc4c(cc3C[C@H]3COC(=O)[C@@H]32)OCO4)cc(OC)c1OC(=O)[C@@H]1CCCN1C(=O)OC1CC(C)(C)N([O])C(C)(C)C1`, for which the IC50 in the assay with A549 (a549) was 600 nM; in the assay on Kidney it was 14600 nM; in the assay on HL-60 (hl-60) it was 140 nM; in the assay on RPMI-8226 (rpmi-8226), 130 nM; in the assay with Liver, 9700 nM.

For `COc1cc([C@@H]2c3cc4c(cc3C[C@H]3COC(=O)[C@@H]32)OCO4)cc(OC)c1OC(=O)[C@H](Cc1ccccc1)NC(=O)OC1CC(C)(C)N([O])C(C)(C)C1`, the IC50 with A549 (a549) came to 500 nM; in the assay on Kidney, 15000 nM; with HL-60 (hl-60), 18 nM; in the assay on RPMI-8226 (rpmi-8226) it was 31 nM; in the assay with Liver it was 10400 nM.

In the case of `COc1cc([C@@H]2c3cc4c(cc3C[C@H]3COC(=O)[C@@H]32)OCO4)cc(OC)c1OC(=O)[C@@H](NC(=O)OC1CC(C)(C)N([O])C(C)(C)C1)C(C)C`, the IC50 was 550 nM in the assay on A549 (a549); 20300 nM with Kidney; 24 nM with HL-60 (hl-60); 160 nM in the assay with RPMI-8226 (rpmi-8226); 19300 nM in the assay on Liver.

For the compound `COc1cc([C@@H]2c3cc4c(cc3C[C@H]3COC(=O)[C@@H]32)OCO4)cc(OC)c1OC(=O)[C@H](CC(C)C)NC(=O)OC1CC(C)(C)N([O])C(C)(C)C1`, the IC50 amounted to 770 nM in the assay on A549 (a549); 12100 nM with Kidney; 85 nM with HL-60 (hl-60); 110 nM in the assay with RPMI-8226 (rpmi-8226); 18000 nM with Liver.

Turning to `CC[C@H](C)[C@H](NC(=O)OC1CC(C)(C)N([O])C(C)(C)C1)C(=O)Oc1c(OC)cc([C@@H]2c3cc4c(cc3C[C@H]3COC(=O)[C@@H]32)OCO4)cc1OC`, the half-inhibitory concentration (IC50) in the assay on A549 (a549) worked out at 830 nM; in the assay on Kidney, 6890 nM; in the assay with HL-60 (hl-60), 36 nM; with RPMI-8226 (rpmi-8226) it was 58 nM; in the assay with Liver, 13200 nM.

On to `COc1cc([C@@H]2c3cc4c(cc3[C@@H](O[C@@H]3O[C@@H]5CO[C@@H](C)O[C@H]5[C@H](O)[C@H]3O)[C@H]3COC(=O)[C@H]23)OCO4)cc(OC)c1O` [ETOPOSIDE], for which the concentration for half-maximal inhibition (IC50) in the assay on A549 (Homo sapiens, A549, 48 h) turned out to be 830 nM; in the assay with Kidney (setting [1]) it was 64600 nM; in the assay on HL-60 (Homo sapiens, HL-60, 72 h), 180 nM; in the assay on RPMI-8226 (Homo sapiens, RPMI-8226, 72 h) it was 700 nM; with Liver (setting [2]), 46400 nM.

These data come from ChEMBL document CHEMBL1157024, “First synthesis and biological evaluation of novel spin-labeled derivatives of deoxypodophyllotoxin” (Eur J Med Chem, 2010).
